From ChEMBL document CHEMBL4507292 (2021)

Tests used:
[1] = system: Tyrosine-protein kinase ABL1 (Homo sapiens), P00519 [T315I]; conditions: Compound concentration 1000.0 nM
[2] = target: Tyrosine-protein kinase ABL1 (Homo sapiens) (UniProt P00519); conditions: Compound concentration 1000.0 nM
[3] = target: Activin receptor type-1 (Homo sapiens) (UniProt Q04771); conditions: Compound concentration 1000.0 nM
[4] = target: BMP-2-inducible protein kinase (Homo sapiens) (UniProt Q9NSY1); conditions: Compound concentration 1000.0 nM
[5] = target: Bone morphogenetic protein receptor type-1A (Homo sapiens) (UniProt P36894); conditions: Compound concentration 1000.0 nM
[6] = target: Serine/threonine-protein kinase B-raf (Homo sapiens) (UniProt P15056); conditions: Compound concentration 1000.0 nM
[7] = target: Cyclin-dependent kinase-like 5 (Homo sapiens) (UniProt O76039); conditions: Compound concentration 1000.0 nM
[8] = target: Serine/threonine-protein kinase MRCK gamma (Homo sapiens) (UniProt Q6DT37); conditions: Compound concentration 1000.0 nM
[9] = target: Ephrin type-A receptor 8 (Homo sapiens) (UniProt P29322); conditions: Compound concentration 1000.0 nM
[10] = target: Mitogen-activated protein kinase 3 (Homo sapiens) (UniProt P27361); conditions: Compound concentration 1000.0 nM
[11] = target: Mitogen-activated protein kinase 6 (Homo sapiens) (UniProt Q16659); conditions: Compound concentration 1000.0 nM
[12] = target: Serine/threonine-protein kinase/endoribonuclease IRE1 (Homo sapiens) (UniProt O75460); conditions: Compound concentration 1000.0 nM
[13] = system: Receptor-type tyrosine-protein kinase FLT3 (Homo sapiens), P36888 [D835Y]; conditions: Compound concentration 1000.0 nM
[14] = system: Receptor-type tyrosine-protein kinase FLT3 (Homo sapiens), P36888 [UNDEFINED MUTATION]; conditions: Compound concentration 1000.0 nM
[15] = target: G protein-coupled receptor kinase 3 (Homo sapiens) (UniProt P35626); conditions: Compound concentration 1000.0 nM
[16] = target: Glycogen synthase kinase-3 beta (Homo sapiens) (UniProt P49841); conditions: Compound concentration 1000.0 nM
[17] = target: Mitogen-activated protein kinase 10 (Homo sapiens) (UniProt P53779); conditions: Compound concentration 1000.0 nM
[18] = system: Mast/stem cell growth factor receptor Kit (Homo sapiens), P10721 [D816V]; conditions: Compound concentration 1000.0 nM
[19] = target: Mitogen-activated protein kinase kinase kinase 3 (Homo sapiens) (UniProt Q99759); conditions: Compound concentration 1000.0 nM
[20] = target: Muscle, skeletal receptor tyrosine-protein kinase (Homo sapiens) (UniProt O15146); conditions: Compound concentration 1000.0 nM
[21] = target: Serine/threonine-protein kinase Nek4 (Homo sapiens) (UniProt P51957); conditions: Compound concentration 1000.0 nM
[22] = target: Platelet-derived growth factor receptor beta (Homo sapiens) (UniProt P09619); conditions: Compound concentration 1000.0 nM
[23] = target: Phosphorylase b kinase regulatory subunit alpha, liver isoform (Homo sapiens) (UniProt P46019); conditions: Compound concentration 1000.0 nM
[24] = target: Phosphatidylinositol 4,5-bisphosphate 3-kinase catalytic subunit alpha isoform (Homo sapiens) (UniProt P42336); conditions: Compound concentration 1000.0 nM
[25] = target: Serine/threonine-protein kinase pim-3 (Homo sapiens) (UniProt Q86V86); conditions: Compound concentration 1000.0 nM
[26] = target: Serine/threonine-protein kinase PLK1 (Homo sapiens) (UniProt P53350); conditions: Compound concentration 1000.0 nM
[27] = target: Serine/threonine-protein kinase PRP4 homolog (Homo sapiens) (UniProt Q13523); conditions: Compound concentration 1000.0 nM
[28] = target: Protein-tyrosine kinase 2-beta (Homo sapiens) (UniProt Q14289); conditions: Compound concentration 1000.0 nM
[29] = system: Proto-oncogene tyrosine-protein kinase receptor Ret (Homo sapiens), P07949 [V804L]; conditions: Compound concentration 1000.0 nM
[30] = target: Ribosomal protein S6 kinase alpha-4 (Homo sapiens) (UniProt O75676); conditions: Compound concentration 1000.0 nM
[31] = target: Ribosomal protein S6 kinase alpha-2 (Homo sapiens) (UniProt Q15349); conditions: Compound concentration 1000.0 nM
[32] = target: Tyrosine-protein kinase Srms (Homo sapiens) (UniProt Q9H3Y6); conditions: Compound concentration 1000.0 nM
[33] = target: Tyrosine-protein kinase Yes (Homo sapiens) (UniProt P07947); conditions: Compound concentration 1000.0 nM
[34] = target: Tyrosine-protein kinase ZAP-70 (Homo sapiens) (UniProt P43403); conditions: Compound concentration 1000.0 nM
[35] = target: 5-hydroxytryptamine receptor 1B (Homo sapiens) (UniProt P28222); conditions: Compound concentration 10.0 uM
[36] = target: T1, 5-hydroxytryptamine receptor 3A (Homo sapiens) (UniProt P46098); conditions: Compound concentration 10.0 uM
T1 sequence (whole entry): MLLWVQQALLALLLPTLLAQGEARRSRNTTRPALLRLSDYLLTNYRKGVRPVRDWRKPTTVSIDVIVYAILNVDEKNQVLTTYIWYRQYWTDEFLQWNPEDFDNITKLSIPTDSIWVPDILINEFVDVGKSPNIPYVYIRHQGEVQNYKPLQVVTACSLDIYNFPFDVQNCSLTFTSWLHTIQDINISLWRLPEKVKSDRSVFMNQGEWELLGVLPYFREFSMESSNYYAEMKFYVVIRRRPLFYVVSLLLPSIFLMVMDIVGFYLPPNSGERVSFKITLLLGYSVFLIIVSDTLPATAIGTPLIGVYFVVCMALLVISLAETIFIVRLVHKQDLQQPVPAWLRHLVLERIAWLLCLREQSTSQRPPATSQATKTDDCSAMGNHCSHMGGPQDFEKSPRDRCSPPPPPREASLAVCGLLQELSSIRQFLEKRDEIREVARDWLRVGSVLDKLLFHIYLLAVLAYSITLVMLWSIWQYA

[37] = target: D(3) dopamine receptor (Homo sapiens) (UniProt P35462); conditions: Compound concentration 10.0 uM
[38] = target: Histamine H3 receptor (Homo sapiens) (UniProt Q9Y5N1); conditions: Compound concentration 10.0 uM
[39] = target: Histamine H4 receptor (Homo sapiens) (UniProt Q9H3N8); conditions: Compound concentration 10.0 uM

Sequence of Bone morphogenetic protein receptor type-1A (Homo sapiens) (P36894 whole entry): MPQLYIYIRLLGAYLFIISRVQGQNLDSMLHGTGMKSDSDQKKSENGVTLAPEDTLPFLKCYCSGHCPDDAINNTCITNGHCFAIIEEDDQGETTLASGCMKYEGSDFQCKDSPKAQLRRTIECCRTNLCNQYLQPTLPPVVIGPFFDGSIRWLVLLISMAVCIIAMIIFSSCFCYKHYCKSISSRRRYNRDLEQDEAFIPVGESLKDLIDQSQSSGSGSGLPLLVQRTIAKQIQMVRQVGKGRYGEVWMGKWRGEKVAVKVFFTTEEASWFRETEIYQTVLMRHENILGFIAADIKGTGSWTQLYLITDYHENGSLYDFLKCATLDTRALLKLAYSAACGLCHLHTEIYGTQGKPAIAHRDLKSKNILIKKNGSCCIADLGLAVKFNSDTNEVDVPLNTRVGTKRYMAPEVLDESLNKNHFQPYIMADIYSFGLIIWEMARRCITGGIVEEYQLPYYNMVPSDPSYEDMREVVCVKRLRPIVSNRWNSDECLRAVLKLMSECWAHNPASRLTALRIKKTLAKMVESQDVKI
Sequence of Serine/threonine-protein kinase B-raf (Homo sapiens) (P15056 whole entry): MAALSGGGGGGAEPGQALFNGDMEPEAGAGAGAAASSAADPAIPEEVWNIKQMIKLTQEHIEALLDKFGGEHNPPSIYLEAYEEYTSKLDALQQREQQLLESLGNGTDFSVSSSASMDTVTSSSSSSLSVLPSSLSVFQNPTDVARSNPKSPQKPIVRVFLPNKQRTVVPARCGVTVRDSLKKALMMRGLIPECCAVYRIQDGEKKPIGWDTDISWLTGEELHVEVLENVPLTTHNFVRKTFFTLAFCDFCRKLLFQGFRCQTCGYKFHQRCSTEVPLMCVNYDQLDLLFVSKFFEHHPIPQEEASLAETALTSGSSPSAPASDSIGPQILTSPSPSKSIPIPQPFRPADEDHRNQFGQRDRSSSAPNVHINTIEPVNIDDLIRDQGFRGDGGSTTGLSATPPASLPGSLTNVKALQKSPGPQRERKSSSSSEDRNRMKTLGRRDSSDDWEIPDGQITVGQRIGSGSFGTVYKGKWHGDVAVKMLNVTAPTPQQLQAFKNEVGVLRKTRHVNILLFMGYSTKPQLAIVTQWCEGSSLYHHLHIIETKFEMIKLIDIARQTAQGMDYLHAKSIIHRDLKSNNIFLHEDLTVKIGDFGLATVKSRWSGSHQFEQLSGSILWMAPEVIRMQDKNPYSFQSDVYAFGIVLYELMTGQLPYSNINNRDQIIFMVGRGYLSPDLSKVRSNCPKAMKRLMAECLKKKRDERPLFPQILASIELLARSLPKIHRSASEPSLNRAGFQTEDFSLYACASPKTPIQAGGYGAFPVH
Sequence of Protein-tyrosine kinase 2-beta (Homo sapiens) (Q14289 whole entry, looked up): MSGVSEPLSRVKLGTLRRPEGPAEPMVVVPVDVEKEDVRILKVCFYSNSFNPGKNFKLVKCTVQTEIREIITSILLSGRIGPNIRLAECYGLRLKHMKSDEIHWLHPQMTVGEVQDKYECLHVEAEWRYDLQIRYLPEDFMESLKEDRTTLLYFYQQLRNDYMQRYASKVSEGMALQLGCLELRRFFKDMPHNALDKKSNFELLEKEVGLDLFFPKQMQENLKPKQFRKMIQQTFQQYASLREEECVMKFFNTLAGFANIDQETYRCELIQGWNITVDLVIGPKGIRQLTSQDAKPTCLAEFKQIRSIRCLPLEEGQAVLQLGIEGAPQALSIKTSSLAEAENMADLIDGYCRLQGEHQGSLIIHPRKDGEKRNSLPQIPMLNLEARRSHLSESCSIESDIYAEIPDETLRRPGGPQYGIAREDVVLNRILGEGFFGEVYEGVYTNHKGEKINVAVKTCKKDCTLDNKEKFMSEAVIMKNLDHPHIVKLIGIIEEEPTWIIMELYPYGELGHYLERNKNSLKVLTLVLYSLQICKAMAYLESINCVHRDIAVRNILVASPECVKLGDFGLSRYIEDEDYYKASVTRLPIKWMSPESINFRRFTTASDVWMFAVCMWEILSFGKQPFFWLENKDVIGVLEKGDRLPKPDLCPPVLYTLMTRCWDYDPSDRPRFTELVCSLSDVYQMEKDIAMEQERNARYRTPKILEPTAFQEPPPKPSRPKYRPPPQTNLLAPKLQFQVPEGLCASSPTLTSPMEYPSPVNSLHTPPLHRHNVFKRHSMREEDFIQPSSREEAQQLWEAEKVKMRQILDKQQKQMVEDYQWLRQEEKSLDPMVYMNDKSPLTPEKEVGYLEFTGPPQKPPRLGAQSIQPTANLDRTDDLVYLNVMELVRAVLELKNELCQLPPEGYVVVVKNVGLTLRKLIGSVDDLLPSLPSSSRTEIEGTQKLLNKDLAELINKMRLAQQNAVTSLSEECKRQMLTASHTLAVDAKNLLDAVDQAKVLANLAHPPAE
Sequence of Serine/threonine-protein kinase MRCK gamma (Homo sapiens) (Q6DT37 whole entry): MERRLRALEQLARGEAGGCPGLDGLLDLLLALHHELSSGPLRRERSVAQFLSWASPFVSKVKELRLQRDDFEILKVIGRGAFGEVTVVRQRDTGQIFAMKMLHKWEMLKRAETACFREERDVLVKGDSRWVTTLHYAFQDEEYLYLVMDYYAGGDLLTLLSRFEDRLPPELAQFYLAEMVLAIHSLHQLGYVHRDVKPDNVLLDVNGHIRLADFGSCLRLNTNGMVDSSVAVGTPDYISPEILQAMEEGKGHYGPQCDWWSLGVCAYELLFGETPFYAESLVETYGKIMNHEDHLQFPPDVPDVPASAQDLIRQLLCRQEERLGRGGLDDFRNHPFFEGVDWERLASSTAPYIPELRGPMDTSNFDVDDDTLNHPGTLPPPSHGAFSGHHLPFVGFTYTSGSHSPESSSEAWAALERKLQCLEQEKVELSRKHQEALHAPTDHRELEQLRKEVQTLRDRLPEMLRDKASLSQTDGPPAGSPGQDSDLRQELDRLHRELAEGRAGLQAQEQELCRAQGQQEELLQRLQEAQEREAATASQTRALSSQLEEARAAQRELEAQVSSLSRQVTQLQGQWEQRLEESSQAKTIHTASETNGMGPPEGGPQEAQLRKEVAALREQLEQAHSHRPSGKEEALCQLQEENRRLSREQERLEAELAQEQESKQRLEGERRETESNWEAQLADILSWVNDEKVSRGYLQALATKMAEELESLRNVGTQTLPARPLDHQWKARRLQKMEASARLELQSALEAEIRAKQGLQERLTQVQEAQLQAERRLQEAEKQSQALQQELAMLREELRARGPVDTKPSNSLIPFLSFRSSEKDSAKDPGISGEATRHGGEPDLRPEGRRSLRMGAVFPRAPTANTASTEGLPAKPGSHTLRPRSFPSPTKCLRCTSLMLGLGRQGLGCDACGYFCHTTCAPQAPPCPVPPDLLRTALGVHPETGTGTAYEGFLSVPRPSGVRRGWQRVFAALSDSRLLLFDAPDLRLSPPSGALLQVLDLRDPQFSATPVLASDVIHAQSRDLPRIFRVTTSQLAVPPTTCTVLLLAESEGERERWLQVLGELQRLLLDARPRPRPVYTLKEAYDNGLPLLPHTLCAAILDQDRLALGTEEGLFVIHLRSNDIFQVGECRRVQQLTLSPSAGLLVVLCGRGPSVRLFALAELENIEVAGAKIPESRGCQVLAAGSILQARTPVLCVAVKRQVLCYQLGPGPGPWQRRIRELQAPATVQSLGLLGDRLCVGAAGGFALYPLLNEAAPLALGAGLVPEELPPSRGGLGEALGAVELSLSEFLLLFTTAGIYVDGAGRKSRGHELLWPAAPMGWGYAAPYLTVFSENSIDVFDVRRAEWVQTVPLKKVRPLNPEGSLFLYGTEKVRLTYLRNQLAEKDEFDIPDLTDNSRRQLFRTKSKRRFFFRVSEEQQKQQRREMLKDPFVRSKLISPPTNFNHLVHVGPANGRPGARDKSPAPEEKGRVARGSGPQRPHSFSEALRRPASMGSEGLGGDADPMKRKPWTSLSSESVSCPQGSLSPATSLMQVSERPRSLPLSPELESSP
Sequence of Mitogen-activated protein kinase 3 (Homo sapiens) (P27361 whole entry): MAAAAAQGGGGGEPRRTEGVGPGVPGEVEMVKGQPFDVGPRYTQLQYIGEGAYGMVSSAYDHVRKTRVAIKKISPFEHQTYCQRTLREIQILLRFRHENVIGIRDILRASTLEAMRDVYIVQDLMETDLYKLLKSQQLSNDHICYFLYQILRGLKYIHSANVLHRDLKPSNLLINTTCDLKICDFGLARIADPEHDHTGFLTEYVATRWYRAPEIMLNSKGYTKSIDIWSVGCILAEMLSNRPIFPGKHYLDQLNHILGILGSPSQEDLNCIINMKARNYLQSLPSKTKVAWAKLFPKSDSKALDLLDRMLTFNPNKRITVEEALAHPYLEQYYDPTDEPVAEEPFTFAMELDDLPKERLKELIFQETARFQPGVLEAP
Sequence of Ribosomal protein S6 kinase alpha-2 (Homo sapiens) (Q15349 whole entry): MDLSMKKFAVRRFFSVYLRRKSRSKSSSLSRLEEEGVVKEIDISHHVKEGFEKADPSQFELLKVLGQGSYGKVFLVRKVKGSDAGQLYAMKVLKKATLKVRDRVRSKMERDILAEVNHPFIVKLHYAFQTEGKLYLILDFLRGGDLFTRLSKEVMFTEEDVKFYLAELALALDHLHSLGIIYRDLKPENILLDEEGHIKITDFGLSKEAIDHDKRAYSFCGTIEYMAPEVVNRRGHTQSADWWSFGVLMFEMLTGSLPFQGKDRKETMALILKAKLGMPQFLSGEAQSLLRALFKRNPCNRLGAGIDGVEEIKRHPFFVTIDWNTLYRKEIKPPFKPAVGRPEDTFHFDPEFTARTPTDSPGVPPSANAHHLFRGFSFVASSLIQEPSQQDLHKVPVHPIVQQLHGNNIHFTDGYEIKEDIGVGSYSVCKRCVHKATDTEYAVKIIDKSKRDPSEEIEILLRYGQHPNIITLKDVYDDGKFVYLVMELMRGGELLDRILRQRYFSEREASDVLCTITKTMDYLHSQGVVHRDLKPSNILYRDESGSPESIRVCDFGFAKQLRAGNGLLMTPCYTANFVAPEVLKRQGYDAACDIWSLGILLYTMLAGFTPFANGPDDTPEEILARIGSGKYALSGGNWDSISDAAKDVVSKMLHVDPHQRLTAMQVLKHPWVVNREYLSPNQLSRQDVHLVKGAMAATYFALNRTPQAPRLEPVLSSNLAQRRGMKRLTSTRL

Compound: O=C(O)c1cc(-c2ccc(C3CCNCC3)cc2)c2ccc(-c3ccc(C(F)(F)F)cc3)cc2c1 [PPTN]
- residual activity [1]: 100%
- residual activity [2]: 75%
- residual activity [3]: 100%
- residual activity [4]: 84%
- residual activity [5]: 100%
- residual activity [6]: 100%
- residual activity [7]: 100%
- residual activity [8]: 100%
- residual activity [9]: 100%
- residual activity [10]: 100%
- residual activity [11]: 100%
- residual activity [12]: 100%
- residual activity [13]: 100%
- residual activity [14]: 100%
- residual activity [15]: 68%
- residual activity [16]: 100%
- residual activity [17]: 100%
- residual activity [18]: 100%
- residual activity [19]: 83%
- residual activity [20]: 90%
- residual activity [21]: 100%
- residual activity [22]: 100%
- residual activity [23]: 100%
- residual activity [24]: 100%
- residual activity [25]: 100%
- residual activity [26]: 88%
- residual activity [27]: 100%
- residual activity [28]: 100%
- residual activity [29]: 88%
- residual activity [30]: 100%
- residual activity [31]: 100%
- residual activity [32]: 100%
- residual activity [33]: 100%
- residual activity [34]: 100%
- inhibition [35]: 20.4%
- inhibition [36]: 4.14%
- inhibition [37]: 65.6%
- inhibition [38]: 0.03%
- inhibition [39]: -6.7%

Compound: Cc1c(C(=O)O)cc(-c2ccc(C3CCNCC3)cc2)c2ccc(-c3ccc(C(F)(F)F)cc3)cc12 [PPTN-NC]
- residual activity [1]: 100%
- residual activity [2]: 82%
- residual activity [3]: 100%
- residual activity [4]: 83%
- residual activity [5]: 100%
- residual activity [6]: 100%
- residual activity [7]: 100%
- residual activity [8]: 100%
- residual activity [9]: 100%
- residual activity [10]: 100%
- residual activity [11]: 100%
- residual activity [12]: 100%
- residual activity [13]: 100%
- residual activity [14]: 95%
- residual activity [15]: 71%
- residual activity [16]: 100%
- residual activity [17]: 100%
- residual activity [18]: 100%
- residual activity [19]: 98%
- residual activity [20]: 100%
- residual activity [21]: 100%
- residual activity [22]: 100%
- residual activity [23]: 100%
- residual activity [24]: 100%
- residual activity [25]: 100%
- residual activity [26]: 94%
- residual activity [27]: 100%
- residual activity [28]: 100%
- residual activity [29]: 100%
- residual activity [30]: 100%
- residual activity [31]: 100%
- residual activity [32]: 100%
- residual activity [33]: 100%
- residual activity [34]: 100%
- inhibition [35]: 14.4%
- inhibition [36]: 4.62%
- inhibition [37]: 46.7%
- inhibition [38]: 7.04%
- inhibition [39]: -4.71%
